For assay [1], the target named is T1, Neuropeptide Y receptor type 1 (Homo sapiens, UniProt P25929).
T1 sequence (P25929 whole entry): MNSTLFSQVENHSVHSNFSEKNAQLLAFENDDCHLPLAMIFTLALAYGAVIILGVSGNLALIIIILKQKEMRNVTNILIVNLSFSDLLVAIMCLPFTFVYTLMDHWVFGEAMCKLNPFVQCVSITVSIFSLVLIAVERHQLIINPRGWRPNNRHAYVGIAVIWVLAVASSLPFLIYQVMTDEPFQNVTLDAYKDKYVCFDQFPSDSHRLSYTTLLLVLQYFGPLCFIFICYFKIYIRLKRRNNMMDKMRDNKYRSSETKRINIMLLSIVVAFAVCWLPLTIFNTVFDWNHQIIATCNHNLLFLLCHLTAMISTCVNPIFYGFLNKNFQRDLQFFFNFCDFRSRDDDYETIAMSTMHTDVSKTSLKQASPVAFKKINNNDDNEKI

The target of assay [2] is T2, Estrogen receptor (Homo sapiens, UniProt P03372).
T2 sequence (P03372 whole entry): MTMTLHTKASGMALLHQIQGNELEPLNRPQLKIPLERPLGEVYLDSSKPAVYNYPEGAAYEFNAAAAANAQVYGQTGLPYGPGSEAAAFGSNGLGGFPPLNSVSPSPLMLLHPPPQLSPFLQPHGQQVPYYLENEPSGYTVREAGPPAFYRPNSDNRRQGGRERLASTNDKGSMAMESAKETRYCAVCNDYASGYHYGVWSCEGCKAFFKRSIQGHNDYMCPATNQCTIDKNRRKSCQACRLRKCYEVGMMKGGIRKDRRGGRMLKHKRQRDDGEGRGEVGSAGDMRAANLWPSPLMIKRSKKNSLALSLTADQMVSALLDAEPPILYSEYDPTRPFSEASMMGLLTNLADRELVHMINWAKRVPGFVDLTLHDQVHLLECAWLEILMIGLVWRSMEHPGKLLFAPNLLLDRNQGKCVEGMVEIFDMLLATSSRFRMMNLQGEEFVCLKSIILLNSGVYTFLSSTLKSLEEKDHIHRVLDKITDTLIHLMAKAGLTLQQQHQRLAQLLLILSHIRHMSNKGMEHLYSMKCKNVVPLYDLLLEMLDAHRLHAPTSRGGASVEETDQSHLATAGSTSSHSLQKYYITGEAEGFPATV

For assay [3], the target named is Kappa-type opioid receptor (Homo sapiens, UniProt P41145).
For assay [4], the target named is T3, Alpha-2B adrenergic receptor (Homo sapiens, UniProt P18089).
T3 sequence (P18089 whole entry): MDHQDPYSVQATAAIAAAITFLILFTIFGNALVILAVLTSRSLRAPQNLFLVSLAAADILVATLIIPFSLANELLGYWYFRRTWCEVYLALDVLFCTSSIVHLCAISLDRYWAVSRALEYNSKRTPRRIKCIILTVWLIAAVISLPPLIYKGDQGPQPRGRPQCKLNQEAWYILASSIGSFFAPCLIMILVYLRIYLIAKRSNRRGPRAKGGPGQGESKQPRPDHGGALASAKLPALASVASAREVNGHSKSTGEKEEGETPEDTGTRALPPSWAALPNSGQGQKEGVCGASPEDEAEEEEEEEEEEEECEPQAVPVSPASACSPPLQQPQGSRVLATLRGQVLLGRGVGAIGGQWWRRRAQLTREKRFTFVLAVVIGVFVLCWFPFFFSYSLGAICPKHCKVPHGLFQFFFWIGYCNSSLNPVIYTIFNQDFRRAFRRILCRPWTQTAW

For assay [5], the target named is Sodium-dependent dopamine transporter (Homo sapiens, UniProt Q01959).
The target of assay [6] is T4, Alpha-2A adrenergic receptor (Homo sapiens, UniProt P08913).
T4 sequence (P08913 whole entry): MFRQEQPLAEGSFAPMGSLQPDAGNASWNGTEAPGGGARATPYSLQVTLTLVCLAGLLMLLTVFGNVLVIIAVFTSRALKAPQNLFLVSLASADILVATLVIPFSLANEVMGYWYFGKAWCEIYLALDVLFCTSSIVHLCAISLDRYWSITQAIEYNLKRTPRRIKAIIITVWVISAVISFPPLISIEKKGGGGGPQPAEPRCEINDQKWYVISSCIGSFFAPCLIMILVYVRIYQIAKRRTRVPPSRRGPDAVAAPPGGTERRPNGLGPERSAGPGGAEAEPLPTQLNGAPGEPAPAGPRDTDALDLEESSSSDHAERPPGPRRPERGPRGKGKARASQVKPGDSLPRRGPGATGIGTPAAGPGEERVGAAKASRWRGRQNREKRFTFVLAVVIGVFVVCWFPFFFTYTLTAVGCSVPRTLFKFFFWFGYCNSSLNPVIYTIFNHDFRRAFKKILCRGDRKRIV

SMILES strings stand for the structures. Some results are limits rather than exact numbers.
Note: assay procedure not described here.

Chain of Kappa-type opioid receptor (P41145 whole entry): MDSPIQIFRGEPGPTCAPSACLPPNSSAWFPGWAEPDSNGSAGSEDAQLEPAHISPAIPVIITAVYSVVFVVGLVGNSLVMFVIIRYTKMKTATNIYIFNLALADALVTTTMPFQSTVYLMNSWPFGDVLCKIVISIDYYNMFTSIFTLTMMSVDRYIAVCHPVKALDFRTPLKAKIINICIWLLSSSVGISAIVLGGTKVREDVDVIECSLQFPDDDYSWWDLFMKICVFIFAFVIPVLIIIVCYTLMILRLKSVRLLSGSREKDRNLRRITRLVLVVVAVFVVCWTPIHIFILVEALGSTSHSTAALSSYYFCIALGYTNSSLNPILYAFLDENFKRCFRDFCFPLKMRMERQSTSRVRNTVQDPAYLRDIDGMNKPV
Chain of Sodium-dependent dopamine transporter (Q01959 whole entry): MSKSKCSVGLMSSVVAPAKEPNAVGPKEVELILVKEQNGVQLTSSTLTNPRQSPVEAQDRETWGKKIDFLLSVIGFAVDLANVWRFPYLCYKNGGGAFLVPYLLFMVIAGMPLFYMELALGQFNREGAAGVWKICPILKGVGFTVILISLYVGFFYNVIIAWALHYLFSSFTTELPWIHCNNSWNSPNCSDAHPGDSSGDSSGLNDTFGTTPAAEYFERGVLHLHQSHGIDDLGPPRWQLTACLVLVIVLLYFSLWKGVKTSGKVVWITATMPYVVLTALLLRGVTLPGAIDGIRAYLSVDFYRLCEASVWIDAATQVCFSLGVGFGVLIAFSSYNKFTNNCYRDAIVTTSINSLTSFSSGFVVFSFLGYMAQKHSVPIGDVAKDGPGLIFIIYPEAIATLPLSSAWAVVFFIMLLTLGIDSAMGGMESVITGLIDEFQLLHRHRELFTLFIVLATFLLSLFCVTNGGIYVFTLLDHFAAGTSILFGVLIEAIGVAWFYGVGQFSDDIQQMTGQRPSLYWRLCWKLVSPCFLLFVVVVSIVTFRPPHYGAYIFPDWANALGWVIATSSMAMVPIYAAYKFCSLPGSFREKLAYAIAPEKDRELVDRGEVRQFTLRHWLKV

For `NC[C@H]1CC[C@H](C(=O)O)CC1` [TRANEXAMIC ACID], the AC50 in assay [1], in assay [2] and in assay [3] was > 10 µM throughout.

On to `CCc1nn(CCCN2CCN(c3cccc(Cl)c3)CC2)c(=O)n1CCOc1ccccc1` [NEFAZODONE], for which the AC50 in assay [1] was > 30 µM; in assay [2], > 30 µM; in assay [4], 0.34 µM; in assay [3] it was 5.46 µM.

Take `NC(N)=Nc1nc(CSCCC(N)=NS(N)(=O)=O)cs1` [FAMOTIDINE]: the AC50 in assay [1] was > 30 µM; in assay [2], > 30 µM; in assay [3], > 10 µM.

Turning to `Cc1cccc(C)c1OCC(C)N` (stereo unspecified) [MEXILETINE], the AC50 in assay [1] and in assay [2] was > 30 µM in each case.

Consider `CNC(=O)c1cc(Oc2ccc(NC(=O)Nc3ccc(Cl)c(C(F)(F)F)c3)cc2)ccn1` [SORAFENIB], for which the concentration at half-maximal activity (AC50) in assay [1] was > 30 µM; in assay [4] it was > 30 µM; in assay [3], 23 µM.

Take `NC[C@H]1O[C@H](O[C@H]2[C@H](O)[C@@H](O[C@H]3O[C@H](CO)[C@@H](O)[C@H](N)[C@H]3O)[C@H](N)C[C@@H]2N)[C@H](O)[C@@H](O)[C@@H]1O` [KANAMYCIN]: the AC50 in assay [1] is > 10 µM; in assay [2] it was > 10 µM; in assay [3], > 30 µM.

Turning to `NS(=O)(=O)c1cc2c(cc1Cl)NCNS2(=O)=O` [HYDROCHLOROTHIAZIDE], the AC50 is > 30 µM in assay [1], > 30 µM in assay [2] and > 10 µM in assay [3].

For `CC(C)(C(=O)c1cccnc1)c1cccnc1` [METYRAPONE], the AC50 in assay [1], in assay [2] and in assay [3] was > 10 µM each time.

In the case of `CC(C(=O)O)c1ccc(C(=O)c2cccs2)cc1` (stereo unspecified) [SUPROFEN], the concentration at half-maximal activity (AC50) in assay [1], in assay [4] and in assay [3] was > 10 µM each time.

As for `CCOC(=O)[C@H](CCc1ccccc1)N[C@@H](C)C(=O)N1CCC[C@H]1C(=O)O`, the AC50 is > 30 µM in assay [1] and > 10 µM in assay [3].

For the molecule `CC(=O)OCC(=O)[C@@]1(O)CC[C@H]2[C@@H]3CCC4=CC(=O)CC[C@]4(C)[C@H]3C(=O)C[C@@]21C` [CORTISONE ACETATE], the AC50 in assay [3] was > 30 µM.

For the molecule `CCC[C@@H]1C[C@@H](C(=O)N[C@@H]([C@H]2O[C@H](SC)[C@H](O)[C@@H](O)[C@H]2O)[C@H](C)Cl)N(C)C1` [CLINDAMYCIN], the half-maximal activity concentration (AC50) in assay [1] was > 30 µM; in assay [2], > 30 µM; in assay [3] it was > 10 µM.

In the case of `CCCS(=O)(=O)Nc1ccc(F)c(C(=O)c2c[nH]c3ncc(-c4ccc(Cl)cc4)cc23)c1F` [VEMURAFENIB], the AC50 in assay [1], in assay [2], in assay [4] and in assay [3] was > 30 µM each time.

Take `N[C@@H](C(=O)N[C@@H]1C(=O)N2C(C(=O)O)=C(Cl)CS[C@H]12)c1ccccc1` [CEFACLOR ANHYDROUS]: the AC50 in assay [1], in assay [2], in assay [4] and in assay [3] was > 30 µM throughout.

In the case of `NC1=NC(=O)C(c2ccccc2)O1` (stereo unspecified) [PEMOLINE], the figures for the AC50 in assay [1] and in assay [3] were > 30 µM and > 10 µM, respectively.

In turn, `CN1CCCC(n2nc(Cc3ccc(Cl)cc3)c3ccccc3c2=O)CC1` (stereo unspecified) [AZELASTINE] gave a half-maximal activity concentration (AC50) in assay [4] of 3.8 µM.

Regarding `NC(=O)c1ncn([C@@H]2O[C@H](CO)[C@@H](O)[C@H]2O)c1O` [MIZORIBINE], the AC50 in assay [1], in assay [2], in assay [4] and in assay [3] was > 30 µM each time.

Turning to `CN1C(=O)CC(C)(c2ccccc2)C1=O` (stereo unspecified) [METHSUXIMIDE], the AC50 in assay [1], in assay [2], in assay [4] and in assay [3] was > 10 µM throughout.

With `OCc1cc([C@@H](O)CNCCCCCCOCCOCc2c(Cl)cccc2Cl)ccc1O` [VILANTEROL], in assay [4], the concentration at half-maximal activity (AC50) is > 30 µM.

For the molecule `CO/N=C(\C(=O)N[C@@H]1C(=O)N2C(C(=O)[O-])=C(C[N+]3(C)CCCC3)CS[C@H]12)c1csc(N)n1`, the AC50 in assay [1], in assay [2] and in assay [3] was > 30 µM throughout.

`O=C(O)c1cc(-c2ccc(F)cc2F)ccc1O` [DIFLUNISAL]: the AC50 in assay [1], in assay [2] and in assay [3] was > 10 µM throughout.

Take `CC(=O)c1ccc2c(c1)N(CCCN1CCN(CCO)CC1)c1ccccc1S2` [ACETOPHENAZINE]: half-maximal activity in assay [4] (AC50) was put at 0.056 µM.

On to `C[C@@H]1O[C@@H]1P(=O)(O)O` [FOSFOMYCIN], for which the AC50 in assay [1], in assay [4] and in assay [3] was > 10 µM each time.

On to `CC(C)NCC(O)COc1ccc(COCCOC(C)C)cc1` (stereo unspecified) [BISOPROLOL], for which the AC50 in assay [1] was > 30 µM; in assay [2], > 30 µM; in assay [4], > 10 µM; in assay [3], > 10 µM.

As to `COC(=O)[C@@H]1CC2=CC(=O)CC[C@]2(C)[C@@]23O[C@@H]2C[C@@]2(C)[C@@H](CC[C@@]24CCC(=O)O4)[C@H]13` [EPLERENONE], the AC50 is > 30 µM in assay [1], > 30 µM in assay [2], > 30 µM in assay [4] and > 10 µM in assay [3].

`Cc1ccc(C(=O)c2cc(O)c(O)c([N+](=O)[O-])c2)cc1` [TOLCAPONE]: the AC50 in assay [1], in assay [4] and in assay [3] was > 10 µM each time.

Turning to `Cc1cc2c(cc1CC(=O)c1sccc1S(=O)(=O)Nc1onc(C)c1Cl)OCO2` [SITAXENTAN], the concentration at half-maximal activity (AC50) in assay [5] and in assay [6] was > 30 µM each time.

As for `CC[C@H](C)C(=O)O[C@H]1C[C@H](O)C=C2C=C[C@H](C)[C@H](CC[C@@H](O)C[C@@H](O)CC(=O)O)[C@H]21` [PRAVASTATIN], the AC50 in assay [3] is > 10 µM.

In the case of `CC(C)Cc1ccc(CC(=O)O)cc1` [IBUFENAC], in assay [4], the half-maximal activity concentration (AC50) was > 30 µM.

On to `C[C@H]1C[C@@H]2[C@H]([C@@H](O)C[C@@]3(C)[C@H]2CC[C@]3(O)C(=O)CO)[C@@]2(C)C=CC(=O)C=C12` [METHYLPREDNISOLONE], for which the concentration at half-maximal activity (AC50) in assay [1] and in assay [3] was > 10 µM each time.

With `CC(N)Cc1ccccc1` (stereo unspecified) [AMPHETAMINE], the AC50 was > 30 µM in assay [1], > 30 µM in assay [2] and > 10 µM in assay [3].

As to `CCC(=O)O[C@H]1[C@H](O[C@@H]2[C@@H](C)[C@H](O[C@H]3C[C@@](C)(OC)[C@@H](O)[C@H](C)O3)[C@@H](C)C(=O)O[C@H](CC)[C@@](C)(O)[C@H](O)[C@@H](C)C(=O)[C@H](C)C[C@@]2(C)O)O[C@H](C)C[C@@H]1N(C)C` [ERYTHROMYCIN PROPIONATE], the AC50 was 29.1 µM in assay [5] and > 30 µM in assay [6].

For the molecule `CCN(CC)CCNC(=O)c1cc(Cl)c(N)cc1OC` [METOCLOPRAMIDE], the AC50 in assay [1] is > 30 µM; in assay [2], > 30 µM; in assay [3], > 10 µM.

As to `COC(=O)C1=C(C)NC(C)=C(C(=O)OCC(C)C)C1c1ccccc1[N+](=O)[O-]` (stereo unspecified) [NISOLDIPINE], the AC50 is > 10 µM in assay [1], > 30 µM in assay [2] and > 10 µM in assay [3].

By AC50 is commonly meant the midpoint of the concentration-response curve, whichever way the signal moves. The low end stands for greater potency, the high end for weaker potency.

Values taken from ChEMBL document CHEMBL5291721, “A preclinical secondary pharmacology resource illuminates target-adverse drug reaction associations of marketed drugs” (Nat Commun, 2023).
